In PMC3127977, “No relevant cardiac, pharmacokinetic or safety interactions between roflumilast and inhaled formoterol in healthy subjects: an open-label, randomised, actively controlled study” (BMC Clinical Pharmacology, 2011):

Tests used:
[1] = Steady-state plasma pharmacokinetics (HPLC-MS/MS) in healthy men; oral roflumilast 500 μg once daily, inhaled formoterol 24 μg twice daily; conditions: for Cmax: Cmax (formoterol)
Method: (§1) For Regimen A, subjects received 500 μg oral roflumilast once daily (daily dose: one tablet of roflumilast 500 μg) from the morning of Day 2 to the morning of Day 18. […] For Regimen B, subjects received 24 μg formoterol for oral inhalation delivered by a DPI device (Foradil® P) twice daily, once in the morning and once in the evening from the morning of Day 2 to the evening of Day 18.
Pre-dose blood samples for determination of trough levels were taken on Days 9 and 10 for Regimen A (morning only), and on Days 6 and 7 (morning and evening) for Regimen B. Blood samples (4.5 mL) were collected in heparinised tubes and plasma was obtained by centrifugation at 1550 g for 15 minutes. Plasma samples were stored at -20°C or below for roflumilast, and at -70°C for formoterol. Plasma concentrations of roflumilast and roflumilast N-oxide were determined using high-performance liquid chromatography coupled with tandem mass spectrometry (HPLC-MS/MS). […] Roflumilast and roflumilast N-oxide standard curves were valid up to 20 ng/mL and 40 ng/mL, respectively. Determination of roflumilast and roflumilast N-oxide was performed at Altana Pharma AG, Konstanz, Germany (Nycomed GmbH). Plasma concentrations of formoterol were determined using HPLC-MS/MS. The LLOQ in plasma was 0.4 pg/mL using a sample volume of 1.0 mL. […] Determination of formoterol was performed at pharm-analyt Labor GmbH, Baden, Austria, under the supervision of Altana Pharma AG(Nycomed GmbH).
For roflumilast, roflumilast N-oxide and formoterol, the maximum plasma concentration (Cmax) was derived directly from the plasma concentrations. The AUC from time zero to the time of the last quantifiable concentration, which corresponded to the dosing interval of each analyte (AUC0-τ), was estimated using the linear trapezoidal method. Apparent clearance at steady state (CL/F; calculated by dose/AUCτ) was reported for roflumilast only. […] The calculation of tPDE4i was based on the equation described in Lahu et al..

healthy subjects [2] = test: Transthoracic impedance cardiography (ZCG) and systolic time intervals in healthy men; oral roflumilast 500 μg once daily, inhaled formoterol 24 μg twice daily; conditions: Regimen B
Method: as §1
Cardiovascular effects were evaluated non-invasively by means of ECGs (cardiac rhythm, intra-cardiac conduction and ventricular repolarisation), oscillometric blood pressure and transthoracic impedance cardiography (ZCG; systolic time intervals, contractility indices and estimates of stroke volume and cardiac output). Cardiovascular assessments (oscillometric blood pressure, pulse rate, 12-lead ECG, and three-lead ZCG) were recorded before dosing and at 10, 20, 40 and 60 minutes, and at 2, 3, 4, 5, 6, 7 and 8 hours after morning dosing. […] All cardiovascular measurements were carried out after the subjects had been recumbent for at least 10 minutes; they generally stayed in bed from 1 hour before until 8 hours after morning dosing.
Systolic time intervals (STIs) and ZCG estimates of the systolic cardiac pump performance were derived from the simultaneous registration of a one-lead ECG, a phonocardiogram (PCG), and the rate of change of the transthoracic impedance (dZ/dt) to an AC current applied through the thoracic cage (CARDIODYNAGRAPH; Diefenbach GmbH, Wiesbaden, Germany). Tracings were captured and stored digitally during the study and subsequently analysed after the study by displaying the analogue ECG, PCG and ZCG signals on a computer screen. The relevant signal amplitudes and time intervals were delineated manually by operator-steered cursors; measurements were made for at least 10 artefact-free consecutive cardiac cycles. From these tracings, the following variables were derived by direct measurement: RR interval (ms), total electromechanic systole (QS2 [ms]), ventricular ejection time (VET [ms]), baseline transthoracic impedance (Z0 [Ω]), and maximum negative velocity of transthoracic impedance changes during the cardiac cycle (dZ/dtmax [Ω/s]). These variables were analysed for the 10 cycles and their means were used in the calculations of the following variables: heart rate (HR [bpm]), pre-ejection period (PEP [ms] = QS2 - VET), HR-corrected STIs (STIc and STIi according to Weissler et al.), ZCG estimates of stroke volume (SV [mL] according to Kubicek's equation [37] using the equation of Geddes and Sadler for the specific resistance of blood), cardiac output (CO [mL/min]), and total peripheral resistance (TPR [dyn.s.cm^-5]). For the latter variable, the mean blood pressure (MBP [mmHg]) was used as calculated according to Wezler and Böger from the systolic blood pressure (mmHg) and the diastolic blood pressure (mmHg).
ZCG analysis was carried out by a single analyst who was blinded with regard to subject, study regimen, profiling day within regimen, and time during the day.

healthy subjects [3] = test: Digital 12-lead electrocardiography (HR, QT, QTc); assay type: in vivo, human
Method: Digital 12-lead ECGs were recorded immediately after each ZCG recording. Tracings were analysed off-study by regimen-blinded qualified analysts, using previously reported methodology. For each time point, three cycles were measured with regard to the RR, PQ and QT-intervals [ms]. The means of the three measurements were used for the calculation of HR and HR-corrected QTc intervals, according to Bazett's equation (QTcB = QT/RR^1/2) and Fridericia's equation (QTcF = QT/RR^1/3).

healthy subjects [4] = test: Adverse event monitoring; assay type: in vivo, human
From the text: Blood and urine samples for conventional clinical laboratory safety tests were obtained at the screening visit, in the morning of each main profiling day, and on Day 19. Adverse events (AEs) were monitored throughout the study.

[5] = orally co-administered formoterol, Phase I study; ref unpublished data; Nycomed GmbH, 2002; cited from earlier work
[6] = test system: human parenchymal and bronchial explants; conditions: in vitro; cited from earlier work
[7] = Serum glucose concentration on profiling days; conditions: Regimen B, throughout Day 8 compared with Day 1
From the text: (§2) During the main profiling days, blood was sampled at each ZCG time point for the determination of serum glucose and potassium concentrations.

[8] = Serum potassium concentration on profiling days; conditions: Regimen B, Day 8
From the text: as §2

COc1ccc(CC(C)NCC(O)c2ccc(O)c(NC=O)c2)cc1 (stereo not drawn) [Formoterol]
changes in steady-state pharmacokinetics when the other drug was added ([1]; formoterol added to roflumilast, or roflumilast added to formoterol): no changes
Cmax ([1]; male, human, in vivo, 24 μg, steady state, Regimen B Day 8 (formoterol alone), geometric mean (68% range)): 16.7 ng/mL
AUC ([1]; male, human, in vivo, AUCτ (formoterol), steady state, Regimen A Day 18 (roflumilast plus formoterol), geometric mean (68% range)): 93.2 ng·h/mL
Cmax ([1]; male, human, in vivo, steady state, Regimen A Day 18 (roflumilast plus formoterol), geometric mean (68% range)): 18.7 ng/mL
Cmax ([1]; male, human, in vivo, steady state, Regimen B Day 18 (formoterol plus roflumilast), geometric mean (68% range)): 17.2 ng/mL
Ctrough (formoterol) ([1]; steady state, Regimen A Day 18 (roflumilast plus formoterol), geometric mean (68% range)): 4.23 (2.43-7.38) μg/L
Ctrough (formoterol) ([1]; steady state, Regimen B Day 8 (formoterol alone), geometric mean (68% range)): 4.12 (3.05-5.57) μg/L
Ctrough (formoterol) ([1]; steady state, Regimen B Day 18 (formoterol plus roflumilast), geometric mean (68% range)): 3.94 (3.13-4.96) μg/L
CO, Day 1-matched post-dose maximum dmax (δ), median (healthy subjects [2]; Day 8 (F)): 2.9 L/min
CO, Day 1-matched post-dose minimum dmin (δ), median (healthy subjects [2]; Day 8 (F)): -0.6 L/min
CO, untransformed post-dose maximum dmax (U), median (healthy subjects [2]; Day 8 (F)): 11.8 L/min
CO, untransformed post-dose minimum dmin (U), median (healthy subjects [2]; Day 8 (F)): 8.2 L/min
CO, untransformed pre-dose morning value, median (healthy subjects [2]; Day 8 (F)): 9.7 L/min
HR, Day 1-matched post-dose maximum dmax (δ), median (healthy subjects [2]; Day 8 (F)): 16 bpm
HR, Day 1-matched post-dose minimum dmin (δ), median (healthy subjects [2]; Day 8 (F)): -2 bpm
HR, untransformed post-dose maximum dmax (U), median (healthy subjects [2]; Day 8 (F)): 72 bpm
HR, untransformed post-dose minimum dmin (U), median (healthy subjects [2]; Day 8 (F)): 62 bpm
HR, untransformed pre-dose morning value, median (healthy subjects [2]; Day 8 (F)): 66 bpm
PEP, Day 1-matched post-dose maximum dmax (δ), median (healthy subjects [2]; Day 8 (F)): 25 ms
PEP, Day 1-matched post-dose minimum dmin (δ), median (healthy subjects [2]; Day 8 (F)): -26 ms
PEP, untransformed post-dose maximum dmax (U), median (healthy subjects [2]; Day 8 (F)): 117 ms
PEP, untransformed post-dose minimum dmin (U), median (healthy subjects [2]; Day 8 (F)): 84 ms
PEP, untransformed pre-dose morning value, median (healthy subjects [2]; Day 8 (F)): 97 ms
QS2, Day 1-matched post-dose maximum dmax (δ), median (healthy subjects [2]; Day 8 (F)): 13 ms
QS2, Day 1-matched post-dose minimum dmin (δ), median (healthy subjects [2]; Day 8 (F)): -47 ms
QS2, untransformed post-dose maximum dmax (U), median (healthy subjects [2]; Day 8 (F)): 440 ms
QS2, untransformed post-dose minimum dmin (U), median (healthy subjects [2]; Day 8 (F)): 408 ms
QS2, untransformed pre-dose morning value, median (healthy subjects [2]; Day 8 (F)): 431 ms
TPR, Day 1-matched post-dose maximum dmax (δ), median (healthy subjects [2]; Day 8 (F)): 61 dyn.s.cm^-5
TPR, Day 1-matched post-dose minimum dmin (δ), median (healthy subjects [2]; Day 8 (F)): -221 dyn.s.cm^-5
TPR, untransformed post-dose maximum dmax (U), median (healthy subjects [2]; Day 8 (F)): 882 dyn.s.cm^-5
TPR, untransformed post-dose minimum dmin (U), median (healthy subjects [2]; Day 8 (F)): 561 dyn.s.cm^-5
TPR, untransformed pre-dose morning value, median (healthy subjects [2]; Day 8 (F)): 668 dyn.s.cm^-5
dZ/dt, Day 1-matched post-dose maximum dmax (δ), median (healthy subjects [2]; Day 8 (F)): 0.32 Ω/s
dZ/dt, Day 1-matched post-dose minimum dmin (δ), median (healthy subjects [2]; Day 8 (F)): -0.29 Ω/s
dZ/dt, untransformed post-dose maximum dmax (U), median (healthy subjects [2]; Day 8 (F)): 2.10 Ω/s
dZ/dt, untransformed post-dose minimum dmin (U), median (healthy subjects [2]; Day 8 (F)): 1.64 Ω/s
dZ/dt, untransformed pre-dose morning value, median (healthy subjects [2]; Day 8 (F)): 1.94 Ω/s
CO, dmax (U), point estimate (95% CI) of difference between days (healthy subjects [2]; Day 8-Day 1): 1.7 (0.6 to 2.6) L/min
CO, dmin (U), point estimate (95% CI) of difference between days (healthy subjects [2]; Day 8-Day 1): 0.5 (-0.5 to 1.4) L/min
CO, untransformed pre-dose morning value, point estimate (95% CI) of difference between days (healthy subjects [2]; Day 8-Day 1): 0.7 (-0.9 to 2.0) L/min
HR, dmax (U), point estimate (95% CI) of difference between days (healthy subjects [2]; Day 8-Day 1): 9 (5 to 11) bpm
HR, dmin (U), point estimate (95% CI) of difference between days (healthy subjects [2]; Day 8-Day 1): 7 (3 to 10) bpm
HR, untransformed pre-dose morning value, point estimate (95% CI) of difference between days (healthy subjects [2]; Day 8-Day 1): 5 (2 to 9) bpm
PEP, dmax (U), point estimate (95% CI) of difference between days (healthy subjects [2]; Day 8-Day 1): -4 (-14 to 2) ms
PEP, dmin (U), point estimate (95% CI) of difference between days (healthy subjects [2]; Day 8-Day 1): 0 (-7 to 6) ms
PEP, untransformed pre-dose morning value, point estimate (95% CI) of difference between days (healthy subjects [2]; Day 8-Day 1): -7 (-22 to 7) ms
QS2, dmax (U), point estimate (95% CI) of difference between days (healthy subjects [2]; Day 8-Day 1): -14 (-27 to 4) ms
QS2, dmin (U), point estimate (95% CI) of difference between days (healthy subjects [2]; Day 8-Day 1): -13 (-22 to -3) ms
QS2, untransformed pre-dose morning value, point estimate (95% CI) of difference between days (healthy subjects [2]; Day 8-Day 1): -4 (-18 to 9) ms
TPR, dmax (U), point estimate (95% CI) of difference between days (healthy subjects [2]; Day 8-Day 1): -49 (-160 to 80) dyn.s.cm^-5
TPR, dmin (U), point estimate (95% CI) of difference between days (healthy subjects [2]; Day 8-Day 1): -96 (-188 to -24) dyn.s.cm^-5
TPR, untransformed pre-dose morning value, point estimate (95% CI) of difference between days (healthy subjects [2]; Day 8-Day 1): -18 (-198 to 70) dyn.s.cm^-5
dZ/dt, dmax (U), point estimate (95% CI) of difference between days (healthy subjects [2]; Day 8-Day 1): 0.01 (-0.15 to 0.21) Ω/s
dZ/dt, dmin (U), point estimate (95% CI) of difference between days (healthy subjects [2]; Day 8-Day 1): 0.03 (-0.13 to 0.17) Ω/s
dZ/dt, untransformed pre-dose morning value, point estimate (95% CI) of difference between days (healthy subjects [2]; Day 8-Day 1): 0.06 (-0.07 to 0.19) Ω/s
HR (ECG) (healthy subjects [3]; 12-lead ECG): slight increase
QTc values, uncorrected or corrected using Bazett's or Fridericia's formula (healthy subjects [3]; 12-lead ECG): no clinically relevant changes
duration of the QT interval (healthy subjects [3]; 12-lead ECG): decrease
QT/QTc intervals (healthy subjects [3]; all subjects, all regimens): below 450 ms
number of AEs (healthy subjects [4]; Regimen B, Day 2 to Day 8): no AEs were reported
tremor (healthy subjects [4]; administered alone (Regimens A and B respectively)): not observed
drug-drug interaction with roflumilast [5]: no apparent drug-drug interaction
inhibitory effect of roflumilast on cytokine and tumour necrosis factor-α production [6]: increased
post-dose serum glucose [7]: slight post-dose increase
pre-dose serum potassium concentration [8]: 4.38 mmol/L
